Reference: patent publication US10730863B2, “Bridged bicyclic compounds as farnesoid X receptor modulators” (BRISTOL-MYERS SQUIBB COMPANY, priority 2017, dated 2020)

biological target: FXR (Homo sapiens (Human), UniProt Q96RI1); assay: FXR EC50 (FXR agonist activity reported with each example); type: cell-based
Sequence (Q96RI1 262-486): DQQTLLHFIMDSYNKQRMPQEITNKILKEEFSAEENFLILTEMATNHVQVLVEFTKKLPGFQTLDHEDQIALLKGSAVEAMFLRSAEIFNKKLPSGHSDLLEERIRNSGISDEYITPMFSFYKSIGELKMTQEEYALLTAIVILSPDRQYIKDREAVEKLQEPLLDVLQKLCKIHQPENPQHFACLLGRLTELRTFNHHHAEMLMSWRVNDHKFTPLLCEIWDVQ

EC50 [nM] | Molecule
1400 | 3-((4-((5-cyclopropyl-3-(2- trifluoromethoxy)phenyl)isoxazol-4- yl)methoxy)bicyclo[2.2.2]octan-1- yl)methoxy)nicotinic acid [Example 78]
170 | O=C(O)c1ccc(-c2noc(C34CCC(OCc5c(-c6ccccc6OC(F)(F)F)noc5C5CC5)(CC3)CC4)n2)cc1 [Example 2, 4-(5-(4-((5-cyclopropyl-3-(2-(trifluoromethoxy)phenyl)isoxazol-4-yl)methoxy)bicyclo[2.2.2]octan-1-yl)-1,2,4-oxadiazol-3-yl)benzoic acid]
890 | CS(=O)(=O)NC(=O)c1ccc(-c2noc(C34CCC(OCc5c(-c6c(Cl)cccc6Cl)noc5C5CC5)(CC3)CC4)n2)cc1 [Example 3, 4-(5-(4-((5-cyclopropyl-3-(2,6-dichlorophenyl)isoxazol-4-yl)methoxy)bicyclo[2.2.2]octan-1-yl)-1,2,4-oxadiazol-3-yl)-N-(methylsulfonyl)benzamide]
110 | COc1ccc(-c2noc(C34CCC(OCc5c(-c6ccccc6OC(F)(F)F)noc5C5CC5)(CC3)CC4)n2)cc1C(=O)O [Example 4, 5-(5-(4-((5-cyclopropyl-3-(2-(trifluoromethoxy)phenyl)isoxazol-4-yl)methoxy)bicyclo[2.2.2]octan-1-yl)-1,2,4-oxadiazol-3-yl)-2-methoxybenzoic acid]
4200 | O=C(O)c1ccc2nc(C34CCC(OCc5c(-c6ccccc6C(F)(F)F)noc5C5CC5)(CC3)CC4)sc2c1 [Example 6, 2-(4-((5-cyclopropyl-3-(2-(trifluoromethyl)phenyl)isoxazol-4-yl)methoxy)bicyclo[2.2.2]octan-1-yl)benzo[d]thiazole-6-carboxylic acid]
150 | O=C(O)c1cccc(/C=C/C23CCC(OCc4c(-c5c(Cl)cccc5Cl)noc4C4CC4)(CC2)CC3)c1 [Example 7, (E)-3-(2-(4-((5-cyclopropyl-3-(2,6-dichlorophenyl)isoxazol-4-yl)methoxy)bicyclo[2.2.2]octan-1-yl)vinyl)benzoic acid]
380 | FC(F)(F)Oc1ccccc1-c1noc(C2CC2)c1COC12CCC(/C=C/c3cccc(-c4nnn[nH]4)c3)(CC1)CC2 [Example 8, (E)-4-(((4-(3-(1H-tetrazol-5-yl)styryl)bicyclo[2.2.2]octan-1-yl)oxy)methyl)-5-cyclopropyl-3-(2-(trifluoromethoxy)phenyl)isoxazole]
950 | O=C(O)c1ccc(-c2noc(C34CCC(OCc5c(-c6c(Cl)cccc6Cl)noc5C5CC5)(CC3)CC4)n2)nc1 [Example 9, 6-(5-(4-((5-cyclopropyl-3-(2,6-dichlorophenyl)isoxazol-4-yl)methoxy)bicyclo[2.2.2]octan-1-yl)-1,2,4-oxadiazol-3-yl)nicotinic acid]
2700 | O=C(O)c1ccnc(-c2noc(C34CCC(OCc5c(-c6c(Cl)cccc6Cl)noc5C5CC5)(CC3)CC4)n2)c1 [Example 10, 2-(5-(4-((5-cyclopropyl-3-(2,6-dichlorophenyl)isoxazol-4-yl)methoxy)bicyclo[2.2.2]octan-1-yl)-1,2,4-oxadiazol-3-yl)isonicotinic acid]
2900 | O=C(O)c1cncc(-c2noc(C34CCC(OCc5c(-c6ccccc6C(F)(F)F)noc5C5CC5)(CC3)CC4)n2)c1 [Example 11, 5-(5-(4-((5-cyclopropyl-3-(2-(trifluoromethyl)phenyl)isoxazol-4-yl)methoxy)bicyclo[2.2.2]octan-1-yl)-1,2,4-oxadiazol-3-yl)nicotinic acid]
1200 | O=C(O)c1ccc(-c2noc(C34CCC(OCc5c(-c6ccccc6OC(F)(F)F)noc5C5CC5)(CC3)CC4)n2)cn1 [Example 12, 5-(5-(4-((5-cyclopropyl-3-(2-(trifluoromethoxy)phenyl)isoxazol-4-yl)methoxy)bicyclo[2.2.2]octan-1-yl)-1,2,4-oxadiazol-3-yl)picolinic acid]
270 | O=C(O)c1cccc(-c2noc(C34CCC(OCc5c(-c6c(Cl)cccc6Cl)noc5C5CC5)(CC3)CC4)n2)n1 [Example 13, 6-(5-(4-((5-cyclopropyl-3-(2,6-dichlorophenyl)isoxazol-4-yl)methoxy)bicyclo[2.2.2]octan-1-yl)-1,2,4-oxadiazol-3-yl)picolinic acid]
130 | O=C(O)c1cc(-c2noc(C34CCC(OCc5c(-c6c(Cl)cccc6Cl)noc5C5CC5)(CC3)CC4)n2)ccn1 [Example 14, 4-(5-(4-((5-cyclopropyl-3-(2,6-dichlorophenyl)isoxazol-4-yl)methoxy)bicyclo[2.2.2]octan-1-yl)-1,2,4-oxadiazol-3-yl)picolinic acid]
210 | O=C(O)c1cc(F)c2nc(C34CCC(OCc5c(-c6ccccc6OC(F)(F)F)noc5C5CC5)(CC3)CC4)sc2c1 [Example 15, 2-(4-((5-cyclopropyl-3-(2-(trifluoromethoxy)phenyl)isoxazol-4-yl)methoxy)bicyclo[2.2.2]octan-1-yl)-4-fluorobenzo[d]thiazole-6-carboxylic acid]
36 | O=C(O)c1cc(F)c2nc(C34CCC(OCc5c(-c6c(Cl)cccc6Cl)noc5C5CC5)(CC3)CC4)sc2c1 [Example 16, 2-(4-((5-cyclopropyl-3-(2,6-dichlorophenyl)isoxazol-4-yl)methoxy)bicyclo[2.2.2]octan-1-yl)-4-fluorobenzo[d]thiazole-6-carboxylic acid]
2700 | O=C(O)c1ccc2[nH]c(C34CCC(OCc5c(-c6c(Cl)cccc6Cl)noc5C5CC5)(CC3)CC4)nc2c1 [Example 17, 2-(4-((5-cyclopropyl-3-(2,6-dichlorophenyl)isoxazol-4-yl)methoxy)bicyclo[2.2.2]octan-1-yl)-1H-benzo[d]imidazole-5-carboxylic acid]
1100 | O=C(O)c1cccc(-c2nnc(C34CCC(OCc5c(-c6ccccc6OC(F)(F)F)noc5C5CC5)(CC3)CC4)o2)c1 [Example 18, 3-(5-(4-((5-cyclopropyl-3-(2-(trifluoromethoxy)phenyl)isoxazol-4-yl)methoxy)bicyclo[2.2.2]octan-1-yl)-1,3,4-oxadiazol-2-yl)benzoic acid]
1700 | O=C(O)c1cccc(-c2nnc(C34CCC(OCc5c(-c6ccccc6OC(F)(F)F)noc5C5CC5)(CC3)CC4)s2)c1 [Example 19, 3-(5-(4-((5-cyclopropyl-3-(2-(trifluoromethoxy)phenyl)isoxazol-4-yl)methoxy)bicyclo[2.2.2]octan-1-yl)-1,3,4-thiadiazol-2-yl)benzoic acid]
510 | O=C(O)c1cccc(-c2nc(C34CCC(OCc5c(-c6ccccc6C(F)(F)F)noc5C5CC5)(CC3)CC4)no2)c1 [Example 20, 3-(3-(4-((5-cyclopropyl-3-(2-(trifluoromethyl)phenyl)isoxazol-4-yl)methoxy)bicyclo[2.2.2]octan-1-yl)-1,2,4-oxadiazol-5-yl)benzoic acid]
880 | O=C(O)c1ccc(-c2nc(C34CCC(OCc5c(-c6ccccc6C(F)(F)F)noc5C5CC5)(CC3)CC4)no2)cc1 [Example 21, 4-(3-(4-((5-cyclopropyl-3-(2-(trifluoromethyl)phenyl)isoxazol-4-yl)methoxy)bicyclo[2.2.2]octan-1-yl)-1,2,4-oxadiazol-5-yl)benzoic acid]
210 | O=C(O)c1cc(-c2nc(C34CCC(OCc5c(-c6c(Cl)cccc6Cl)noc5C5CC5)(CC3)CC4)no2)ccn1 [Example 22, 4-(3-(4-((5-cyclopropyl-3-(2,6-dichlorophenyl)isoxazol-4-yl)methoxy)bicyclo[2.2.2]octan-1-yl)-1,2,4-oxadiazol-5-yl)picolinic acid]
2800 | O=C(O)c1cccc(-c2nc(C34CCC(OCc5c(-c6ccccc6C(F)(F)F)noc5C5CC5)(CC3)CC4)no2)n1 [Example 23, 6-(3-(4-((5-cyclopropyl-3-(2-(trifluoromethyl)phenyl)isoxazol-4-yl)methoxy)bicyclo[2.2.2]octan-1-yl)-1,2,4-oxadiazol-5-yl)picolinic acid]
250 | O=C(O)c1ccc2nc(C34CCC(OCc5c(-c6c(Cl)cccc6Cl)noc5C5CC5)(CC3)CC4)ncc2c1 [Example 24, 2-(4-((5-cyclopropyl-3-(2,6-dichlorophenyl)isoxazol-4-yl)methoxy)bicyclo[2.2.2]octan-1-yl)quinazoline-6-carboxylic acid]

Molecule | EC50 [nM]
O=C(O)c1cccc(-c2noc(C34CCC(OCc5c(-c6ccccc6OC(F)(F)F)noc5C5CC5)(CC3)CC4)n2)c1 [Example 1, 3-(5-(4-((5-cyclopropyl-3-(2-(trifluoromethoxy)phenyl)isoxazol-4-yl)methoxy)bicyclo[2.2.2]octan-1-yl)-1,2,4-oxadiazol-3-yl)benzoic acid] | 110
O=C(O)c1cccc(-c2noc(C34CCC(OCc5c(-c6ccccc6C(F)(F)F)noc5C5CC5)(CC3)CC4)n2)c1 [Example 25] | 300
CC(C)c1onc(-c2ccccc2OC(F)(F)F)c1COC12CCC(c3nc(-c4ccc(C(=O)O)cc4)no3)(CC1)CC2 [Example 26] | 980
O=C(O)c1ccc(-c2noc(C34CCC(OCc5c(-c6ccccc6C(F)(F)F)noc5C5CC5)(CC3)CC4)n2)cc1 [Example 29] | 330
COc1ccc(-c2noc(C34CCC(OCc5c(-c6ccccc6C(F)(F)F)noc5C5CC5)(CC3)CC4)n2)cc1C(=O)O [Example 31] | 370
COC(=O)c1ccc(-c2noc(C34CCC(OCc5c(-c6ccccc6C(F)(F)F)noc5C5CC5)(CC3)CC4)n2)cc1 [Example 34] | 5100
COC(=O)c1ccc(-c2noc(C34CCC(OCc5c(-c6ccccc6OC(F)(F)F)noc5C(C)C)(CC3)CC4)n2)cc1 [Example 35] | 2400
COC(=O)c1cccc(-c2noc(C34CCC(OCc5c(-c6ccccc6C(F)(F)F)noc5C5CC5)(CC3)CC4)n2)c1 [Example 36] | 3500
O=C(O)c1ccc2nc(C34CCC(OCc5c(-c6ccccc6OC(F)(F)F)noc5C5CC5)(CC3)CC4)sc2c1 [Example 38] | 360
O=C(O)c1cccc(/C=C/C23CCC(OCc4c(-c5ccccc5OC(F)(F)F)noc4C4CC4)(CC2)CC3)c1 [Example 40] | 100
O=C(O)c1ccc(-c2noc(C34CCC(OCc5c(-c6ccccc6OC(F)(F)F)noc5C5CC5)(CC3)CC4)n2)nc1 [Example 42] | 1500
O=C(O)c1cncc(-c2noc(C34CCC(OCc5c(-c6ccccc6OC(F)(F)F)noc5C5CC5)(CC3)CC4)n2)c1 [Example 44] | 870
